Data on 27 compounds can be found in patent US20060264419A1 (priority 2003, published 2006).

Broadly, the IC50 is the point on the concentration scale where inhibition reaches its midpoint.

Chain of 5-HT2A receptors (P14842 whole entry): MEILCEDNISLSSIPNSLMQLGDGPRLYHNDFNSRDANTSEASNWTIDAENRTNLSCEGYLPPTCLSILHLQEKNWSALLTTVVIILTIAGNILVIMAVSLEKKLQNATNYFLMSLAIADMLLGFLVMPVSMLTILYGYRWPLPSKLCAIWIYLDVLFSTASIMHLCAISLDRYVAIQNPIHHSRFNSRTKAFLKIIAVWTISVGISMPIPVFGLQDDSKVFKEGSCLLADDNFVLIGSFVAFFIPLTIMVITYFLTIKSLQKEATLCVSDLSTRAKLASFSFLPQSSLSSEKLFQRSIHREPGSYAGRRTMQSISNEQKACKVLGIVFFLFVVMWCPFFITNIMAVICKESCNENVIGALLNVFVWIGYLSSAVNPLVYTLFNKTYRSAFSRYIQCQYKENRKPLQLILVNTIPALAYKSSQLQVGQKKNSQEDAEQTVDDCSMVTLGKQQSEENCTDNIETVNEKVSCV

The target in the first test is 5-HT2A receptors (Rattus norvegicus, UniProt P14842). Briefly: in-vitro affinity to 5-HT2A receptors, displacement of [3H]ketanserine (Example A1). To be noted: read-out: HT2A IC50. Type of test: binding. The text has this:
The 5-HT2A receptors are exposed both to [^3H]ketanserine (a substance which is known for its affinity to the receptor) and also to the test compound. The decrease in the affinity of [^3H]ketanserine to the receptor is an indication of the affinity of the test substance to the 5-HT2A receptor.
In general terms: In a radioligand displacement assay an active substance lowers the binding of a labelled ligand.
For the compound `Fc1ccccc1-c1c(CN2CCN(Cc3ccncc3)CC2)cnn1-c1ccc(-c2ccccc2)cc1` [Example 968, 1-[1-Biphenyl-4-yl-5-(2-fluorophenyl)-1H-pyrazol-4-ylmethyl]-4-pyridin-4-ylmethylpiperazine], the concentration for half-maximal inhibition (IC50) is 0.075 µM.

Turning to `CN1CCN(Cc2cnn(-c3ccc(Br)cc3)c2-c2ccccc2F)CC1` [Example 989, 1-[1-(4-Bromophenyl)-5-(2-fluoro-phenyl)-1H-pyrazol-4-ylmethyl]-4-methylpiperazine], the IC50 came to 0.13 µM. Turning to `CCN(Cc1ccccc1)Cc1cnn(-c2ccc(-c3ccccc3)cc2)c1-c1ccccc1F` [Example 1039, Benzyl-[1-biphenyl-4-yl-5-(2-fluoro-phenyl)-1H-pyrazol-4-ylmethyl]ethylamine], the IC50 is 0.32 µM.

As for `CN1CCN(Cc2cnn(-c3ccc(-c4cc(Cl)cc(Cl)c4)cc3)c2-c2ccccc2F)CC1` [Example 973, 1-[1-(3′,5′-Dichlorobiphenyl-4-yl)-5-(2-fluoro-phenyl)-1H-pyrazol-4-ylmethyl]-4-methyl-piperazine], the IC50 amounted to 0.086 µM. For `CCN1CCN(Cc2cnn(-c3ccc(-c4ccc(F)cc4)cc3)c2-c2ccc(OC)cc2)CC1` [Example 1011, 1-Ethyl-4-[1-(4′-fluorobiphenyl-4-yl)-5-(4-methoxyphenyl)-1H-pyrazol-4-ylmethyl]-piperazine], the half-maximal inhibitory concentration (IC50) came out at 0.2 µM. Still for that read-out and setting: with `Fc1ccc(-c2ccc(-n3ncc(CN(Cc4cnn(-c5ccc(-c6ccc(F)cc6)cc5)c4-c4ccco4)C4CC4)c3-c3ccco3)cc2)cc1` [Example 982, Cyclopropylbis-[1-(4′-fluorobiphenyl-4-yl)-5-furan-2-yl-1H-pyrazol-4-ylmethyl]amine] the figure was 0.11 µM.

Turning to `CN(C)Cc1ccccc1-c1ccc(-n2ncc(CN3CCN(C)CC3)c2-c2ccccc2F)cc1` [Example 970, {4′-[5-(2-Fluorophenyl)-4-(4-methyl-piperazin-1-ylmethyl)pyrazol-1-yl]biphenyl-2-ylmethyl}-dimethylamine], the IC50 was 0.081 µM. The same measure, in the same setting: the value for `Cc1ccc(-c2ccc(-n3ncc(CN4CCN(C)CC4)c3-c3ccccc3F)cc2)c(F)c1F` [Example 959, 1-[1-(2′,3′-Difluoro-4′-methylbiphenyl-4-yl)-5-(2-fluorophenyl)-1H-pyrazol-4-ylmethyl]-4-methylpiperazine] was 0.06 µM. Same read-out and setting: the value for `OCc1cnn(-c2ccc(-c3ccc(F)cc3)cc2)c1-c1cccc(Cl)c1` [Example 992, [5-(3-Chlorophenyl)-1-(4′-fluoro-biphenyl-4-yl)-1H-pyrazol-4-yl]methanol] was 0.14 µM; that for `CN1CCN(Cc2cnn(-c3ccc(-c4ccccc4Cl)cc3)c2-c2ccccc2F)CC1` [Example 984, 1-[1-(2′-Chlorobiphenyl-4-yl)-5-(2-fluoro-phenyl)-1H-pyrazol-4-ylmethyl]-4-methyl-piperazine] was 0.12 µM.

Staying with this test, now noted: target not given; description names affinity to 5-HT2A receptors; read-out: IC50.
As for `O=C(O)CNCc1cnn(-c2ccc(-c3ccccc3)cc2)c1-c1ccccc1F` [(29), {[1-Biphenyl-4-yl-5-(2-fluorophenyl)-1H-pyrazol-4-ylmethyl]-amino}acetic acid], the IC50 was 1.7 µM. `OC1CCN(Cc2cnn(-c3ccc(-c4ccccc4)cc3)c2-c2ccccc2F)C1` (stereo not drawn) [(53), 1-[1-Biphenyl-4-yl-5-(2-fluorophenyl)-1H-pyrazol-4-ylmethyl]-pyrrolidin-3-ol]: the half-inhibitory concentration (IC50) is 0.014 µM.

As to `CCN1CCN(Cc2cnn(-c3ccc(-c4ccccc4)cc3)c2-c2ccccc2F)CC1` [(90), 1-[1-Biphenyl-4-yl-5-(2-fluorophenyl)-1H-pyrazol-4-ylmethyl]-4-ethylpiperazine], the 50% inhibitory concentration (IC50) was found to be 0.028 µM.

Consider `CN(CC(=O)OC(C)(C)C)Cc1cnn(-c2ccc(-c3ccccc3)cc2)c1-c1cccnc1` [(180), tert-Butyl [(1-biphenyl-4-yl-5-pyridin-3-yl-1H-pyrazol-4-ylmethyl)methylamino]acetate], for which the IC50 worked out at 0.92 µM.

Consider `O=C1NCCCCC1NCc1cnn(-c2ccc(-c3ccccc3)cc2)c1-c1ccccc1F` (stereo not drawn) [(163), 3-{[1-Biphenyl-4-yl-5-(2-fluorophenyl)-1H-pyrazol-4-ylmethyl]-amino}azepan-2-one], for which the half-inhibitory concentration (IC50) is 0.51 µM. As to `CN1CCN(Cc2cnn(-c3ccc(-c4ccccc4F)cc3)c2-c2ccccc2F)CC1` [(63), 1-[1-(2′-Fluorobiphenyl-4-yl)-5-(2-fluorophenyl)-1H-pyrazol-4-ylmethyl]-4-methylpiperazine], the IC50 came out at 0.093 µM. On to `CN1CC2CC1CN2Cc1cnn(-c2ccc(-c3ccccc3)cc2)c1-c1ccccc1F` (stereo not drawn) [(109), 2-[1-Biphenyl-4-yl-5-(2-fluorophenyl)-1H-pyrazol-4-ylmethyl]-5-methyl-2,5-diazabicyclo[2.2.1]heptane], for which the concentration for half-maximal inhibition (IC50) turned out to be 0.094 µM. The same measure, in the same setting: the value for `CN1CCN(Cc2cnn(-c3ccc(C(F)(F)F)cc3)c2-c2ccccc2F)CC1` [(87), 1-[5-(2-Fluorophenyl)-1-(4-trifluoromethylphenyl)-1H-pyrazol-4-ylmethyl]-4-methylpiperazine] was 0.16 µM. The same measure, in the same setting: with `CN1CCN(Cc2cnn(-c3ccc(-c4ccsc4)cc3)c2-c2ccco2)CC1` [(70), 1-[5-Furan-2-yl-1-(4-thiophen-3-ylphenyl)-1H-pyrazol-4-ylmethyl]-4-methylpiperazine] the figure was 0.0045 µM. On the same count and under the same terms, the value for `OCCc1cnn(-c2ccc(-c3ccccc3)cc2)c1-c1ccccc1F` [(173), 2-[1-Biphenyl-4-yl-5-(2-fluorophenyl)-1H-pyrazol-4-yl]-ethanol] was 0.47 µM. With `CCN(Cc1ccccc1)Cc1cnn(-c2ccc(-c3ccccc3)cc2)c1-c1ccccc1F` [(32), Benzyl-[1-biphenyl-4-yl-5-(2-fluorophenyl)-1H-pyrazol-4-ylmethyl]ethylamine], the IC50 was determined as 0.32 µM.

Take `O=C(CNCc1cnn(-c2ccc(-c3ccccc3)cc2)c1-c1ccccc1F)Nc1ccc([N+](=O)[O-])cc1` [(129), 2-{[1-Biphenyl-4-yl-5-(2-fluorophenyl)-1H-pyrazol-4-ylmethyl]-amino}-N-(4-nitrophenyl)acetamide]: the half-maximal inhibitory concentration (IC50) was 0.1 µM. On to `Cn1ccnc1CNCc1cnn(-c2ccc(-c3ccccc3)cc2)c1-c1ccccc1` [(169), (1-Biphenyl-4-yl-5-phenyl-1H-pyrazol-4-ylmethyl)-(1-methyl-1H-imidazol-2-ylmethyl)amine], for which the half-maximal inhibitory concentration (IC50) stood at 0.039 µM.

On to `COC(=O)CCNCc1cnn(-c2ccc(-c3ccccc3)cc2)c1-c1cccnc1` [(183), Methyl 3-[(1-biphenyl-4-yl-5-pyridin-3-yl-1H-pyrazol-4-ylmethyl)amino]propionate], for which the IC50 is 0.83 µM. For `Fc1ccccc1-c1c(CN2CCNCC2)cnn1-c1ccc(-c2ccccc2)cc1` [(55), 1-[1-Biphenyl-4-yl-5-(2-fluorophenyl)-1H-pyrazol-4-ylmethyl]-piperazine], the IC50 was found to be 0.026 µM. On to `COC(=O)c1cc(NCc2cnn(-c3ccc(-c4ccccc4)cc3)c2-c2ccccc2F)cn1C` [(162), Methyl 4-{[1-biphenyl-4-yl-5-(2-fluorophenyl)-1H-pyrazol-4-ylmethyl]amino}-1-methyl-1H-pyrrole-2-carboxylate], for which the half-maximal inhibitory concentration (IC50) was 0.12 µM.

With `Fc1ccccc1-c1c(CN2CCC(N3CCOCC3)CC2)cnn1-c1ccc(-c2ccccc2)cc1` [(25), 4-{1-[1-Biphenyl-4-yl-5-(2-fluorophenyl)-1H-pyrazol-4-ylmethyl]piperidin-4-yl}morpholine], the half-maximal inhibitory concentration (IC50) came to 0.56 µM.
